Results from patent US20250206732A1, “COMPOUNDS AND METHODS FOR THE TARGETED DEGRADATION OF KRAS” (Arvinas Operations, Inc., priority 2022, published 2025).

Target: T1, AsPC-1 HiBiT-KRASG12D (Homo sapiens, UniProt P01116, G12D)
T1 construct: insert the HiBiT tag onto the N-terminus of one or more of the endogenous KRAS alleles; endogenous in cells; host or cells: AsPC-1 (ATCC CRL-1682), CRISPR-Cas9 knock-in clone, one tagged allele
Assay: HiBiT degradation assay (G12D), AsPC-1 HiBiT-KRASG12D cells
Type: cell-based
Details: 24 hours treatment; for Dmax: ASPC1, AsPC-1 HiBiT-KRASG12D cells, maximum degradation observed; for DC50: AsPC-1 HiBiT-KRASG12D cells, HiBiT luminescence
Outline: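 Luminescence read-out of HiBiT-tagged endogenous KRASG12D in AsPC-1 cells after 24 h compound exposure at 37° C; lytic Nano-Glo HiBiT detection, 45 min at room temperature. A parallel alamar blue read (4 h) checked viability, normalized to DMSO-only controls.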

T1 sequence (P01116 1-188 isoform P01116-2 G12D): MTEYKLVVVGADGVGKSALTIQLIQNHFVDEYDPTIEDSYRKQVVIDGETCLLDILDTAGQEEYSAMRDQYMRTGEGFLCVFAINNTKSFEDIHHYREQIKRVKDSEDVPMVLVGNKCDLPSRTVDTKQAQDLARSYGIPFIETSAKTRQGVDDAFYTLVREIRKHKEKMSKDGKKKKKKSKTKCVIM

Compound	Dmax [%]	DC50 [µM]
CCc1cccc2cc(O)cc(-c3ncc4c(N5CC6CCC(C5)N6)nc(OC[C@]56CCCN5C[C@H](Oc5cc([C@H](C(=O)N7C[C@H](O)C[C@H]7C(=O)N[C@@H](C)c7ccc(-c8scnc8C)cc7)C(C)C)on5)CC6)nc4c3F)c12 [Compound 318, (2S,4R)-1-[(2R)-2-[3-[[(6R,8aR)-8a-[[4-(3,8-diazabicyclo[3.2.1]octan-3-yl)-7-(8-ethyl-3-hydroxy-1-naphthyl)-8-fluoro-pyrido[4,3-d]pyrimidin-2-yl]oxymethyl]-2,3,5,6,7,8-hexahydro-1H-indolizin-6-yl]oxy]isoxazol-5-yl]-3-methyl-butanoyl]-4-hydroxy-N-[(1S)-1-[4-(4-methylthiazol-5-yl)phenyl]ethyl]pyrrolidine-2-carboxamide]	20 to 60	1 to 3
CCc1cccc2cc(O)cc(-c3ncc4c(N5CC6CCC(C5)N6)nc(OCCC5CCN(CC6CN(c7cc([C@@H](C(=O)N8C[C@H](O)C[C@H]8C(=O)N[C@@H](C)c8ccc(-c9scnc9C)cc8)C(C)C)on7)C6)CC5)nc4c3F)c12 [Compound 219, (2S,4R)-1-[(2S)-2-(3-{3-[(4-{2-[(4-{3,8-diazabicyclo[3.2.1]octan-3-yl}-7-(8-ethyl-3-hydroxynaphthalen-1-yl)-8-fluoropyrido[4,3-d]pyrimidin-2-yl)oxy]ethyl}piperidin-1-yl)methyl]azetidin-1-yl}-1,2-oxazol-5-yl)-3-methylbutanoyl]-4-hydroxy-N-[(1S)-1-[4-(4-methyl-1,3-thiazol-5-yl)phenyl]ethyl]pyrrolidine-2-carboxamide]	20 to 60	1 to 3
CCc1cccc2cc(O)cc(-c3ncc4c(N5CC6CCC(C5)N6)nc(OCCN5CCC(C(C)(C)N6CCN(c7cc([C@H](C(=O)N8C[C@H](O)C[C@H]8C(=O)N[C@@H](C)c8ccc(-c9scnc9C)cc8)C(C)C)on7)CC6)CC5)nc4c3F)c12 (single isomer, unassigned) [Compound 251, (2S,4R)-1-[(2R*)-2-(3-{4-[2-(1-{2-[(4-{3,8-diazabicyclo[3.2.1]octan-3-yl}-7-(8-ethyl-3-hydroxynaphthalen-1-yl)-8-fluoropyrido[4,3-d]pyrimidin-2-yl)oxy]ethyl}piperidin-4-yl)propan-2-yl]piperazin-1-yl}-1,2-oxazol-5-yl)-3-methylbutanoyl]-4-hydroxy-N-[(1S)-1-[4-(4-methyl-1,3-thiazol-5-yl)phenyl]ethyl] pyrrolidine-2-carboxamide]	80 to 100	< 0.6
Cc1ncsc1-c1ccc([C@H](C)NC(=O)[C@@H]2C[C@@H](O)CN2C(=O)[C@H](c2cc(OC3CN(C(=O)OC[C@@H]4CC[C@@]5(COc6nc(N7CC8CCC(C7)N8)c7cnc(-c8cc(O)cc(Cl)c8C8CC8)c(F)c7n6)CCCN45)C3)no2)C(C)C)cc1 [Compound 322]	60 to 80	0.6 to 1
CCc1cccc2cc(O)cc(-c3ncc4c(N5CC6CCC(C5)N6)nc(OC[C@@H]5CN(CC6CN(c7cc([C@H](C(=O)N8C[C@H](O)C[C@H]8C(=O)N[C@@H](C)c8ccc(-c9scnc9C)cc8)C(C)C)on7)C6)CCN5C)nc4c3F)c12 [Compound 163, (2S,4R)-1-[(2R)-2-[3-(3-{[(3S)-3-{[(4-{3,8-diazabicyclo[3.2.1]octan-3-yl}-7-(8-ethyl-3-hydroxynaphthalen-1-yl)-8-fluoropyrido[4,3-d]pyrimidin-2-yl)oxy]methyl}-4-methylpiperazin-1-yl]methyl}azetidin-1-yl)-1,2-oxazol-5-yl]-3-methylbutanoyl]-4-hydroxy-N-[(1S)-1-[4-(4-methyl-1,3-thiazol-5-yl)phenyl]ethyl]pyrrolidine-2-carboxamide]	60 to 80	< 0.6
CCc1cccc2cc(O)cc(-c3ncc4c(N5CC6CCC(C5)N6)nc(OCCN5CCC(F)(CC6CCN(c7cc([C@H](C(=O)N8C[C@H](O)C[C@H]8C(=O)N[C@@H](C)c8ccc(-c9scnc9C)cc8)C(C)C)on7)CC6)CC5)nc4c3F)c12 [Compound 239]	80 to 100	< 0.6
Cc1ncsc1-c1ccc([C@H](C)NC(=O)[C@@H]2C[C@@H](O)CN2C(=O)[C@@H](c2cc(N3CC4(CCN(CCOc5nc(N6CC7CCC(C6)N7)c6cnc(-c7cc(O)cc8ccc(F)c(F)c78)c(F)c6n5)CC4)C3)no2)C(C)C)cc1 (relative stereo) [Compound 68, (2S,4R)-1-[(2R*)-2-[3-(7-{2-[(4-{3,8-diazabicyclo[3.2.1]octan-3-yl}-7-(7,8-difluoro-3-hydroxynaphthalen-1-yl)-8-fluoropyrido[4,3-d]pyrimidin-2-yl)oxy]ethyl}-2,7-diazaspiro[3.5]nonan-2-yl)-1,2-oxazol-5-yl]-3-methylbutanoyl]-4-hydroxy-N-[(1S)-1-[4-(4-methyl-1,3-thiazol-5-yl)phenyl]ethyl]pyrrolidine-2-carboxamide]	80 to 100	< 0.6
CCc1cccc2cc(O)cc(-c3ncc4c(N5CC6CCC(C5)N6)nc(OC[C@]56CCCN5[C@H](COC(=O)N5CCN(c7cc([C@@H](C(=O)N8C[C@H](O)C[C@H]8C(=O)N[C@@H](C)c8ccc(-c9scnc9C)cc8)C(C)C)on7)CC5)CC6)nc4c3F)c12 [Compound 87, [(3S,7aR)-7a-{[(4-{3,8-diazabicyclo[3.2.1]octan-3-yl}-7-(8-ethyl-3-hydroxynaphthalen-1-yl)-8-fluoropyrido[4,3-d]pyrimidin-2-yl)oxy]methyl}-hexahydro-1H-pyrrolizin-3-yl]methyl 4-{5-[(2S)-1-[(2S,4R)-4-hydroxy-2-{[(1S)-1-[4-(4-methyl-1,3-thiazol-5-yl)phenyl]ethyl]carbamoyl}pyrrolidin-1-yl]-3-methyl-1-oxobutan-2-yl]-1,2-oxazol-3-yl}piperazine-1-carboxylate]	20 to 60	0.6 to 1
CCc1cccc2cc(O)cc(-c3ncc4c(N5CC6CCC(C5)N6)nc(OC[C@]56CCCN5[C@H](COC(=O)N5CC(COc7cc([C@@H](C(=O)N8C[C@H](O)C[C@H]8C(=O)N[C@@H](C)c8ccc(-c9scnc9C)cc8)C(C)C)on7)C5)CC6)nc4c3F)c12 [Compound 122, [(3S,7aR)-7a-{[(4-{3,8-diazabicyclo[3.2.1]octan-3-yl}-7-(8-ethyl-3-hydroxynaphthalen-1-yl)-8-fluoropyrido[4,3-d]pyrimidin-2-yl)oxy]methyl}-hexahydro-1H-pyrrolizin-3-yl]methyl 3-[({5-[(2S)-1-[(2S,4R)-4-hydroxy-2-{[(1S)-1-[4-(4-methyl-1,3-thiazol-5-yl)phenyl]ethyl]carbamoyl}pyrrolidin-1-yl]-3-methyl-1-oxobutan-2-yl]-1,2-oxazol-3-yl}oxy)methyl]azetidine-1-carboxylate]	20 to 60	0.6 to 1
CCc1cccc2cc(O)cc(-c3ncc4c(N5CC6CCC(C5)N6)nc(OCCN5CCC(OC6CN(c7cc([C@H](C(=O)N8C[C@H](O)C[C@H]8C(=O)N[C@@H](C)c8ccc(-c9scnc9C)cc8)C(C)C)on7)C6)CC5)nc4c3F)c12 [Compound 215, (2S,4R)-1-[(2R)-2-(3-{3-[(1-{2-[(4-{3,8-diazabicyclo[3.2.1]octan-3-yl}-7-(8-ethyl-3-hydroxynaphthalen-1-yl)-8-fluoropyrido[4,3-d]pyrimidin-2-yl)oxy]ethyl}piperidin-4-yl)oxy]azetidin-1-yl}-1,2-oxazol-5-yl)-3-methylbutanoyl]-4-hydroxy-N-[(1S)-1-[4-(4-methyl-1,3-thiazol-5-yl)phenyl]ethyl]pyrrolidine-2-carboxamide]	80 to 100	< 0.6
CCc1cccc2cc(O)cc(-c3ncc4c(N5CC6CCC(C5)N6)nc(OCCN5CCC(CN6CC7(C6)CN(c6cc([C@@H](C(=O)N8C[C@H](O)C[C@H]8C(=O)N[C@@H](C)c8ccc(-c9scnc9C)cc8)C(C)C)on6)C7)CC5)nc4c3F)c12 [Compound 236]	–	> 3
CCc1cccc2cc(O)cc(-c3ncc4c(N5CC6CCC(C5)N6)nc(OCCN5CCC(C)(CCOc6cc([C@H](C(=O)N7C[C@H](O)C[C@H]7C(=O)N[C@@H](C)c7ccc(-c8scnc8C)cc7)C(C)C)on6)CC5)nc4c3F)c12 [Compound 237]	–	> 3
C#Cc1c(F)ccc2cc(O)cc(-c3ncc4c(N5CC6CCC(C5)N6)nc(OCCN5CCC6(CC5)CN(c5cc(C(C(=O)N7C[C@H](O)C[C@H]7C(=O)N[C@@H](C)c7ccc(-c8ccnn8C)cc7)C(C)C)on5)C6)nc4c3F)c12 (single isomer, unassigned) [Compound 83, (2S,4R)-1-[(2R*)-2-[3-(7-{2-[(4-{3,8-diazabicyclo[3.2.1]octan-3-yl}-7-(8-ethynyl-7-fluoro-3-hydroxynaphthalen-1-yl)-8-fluoropyrido[4,3-d]pyrimidin-2-yl)oxy]ethyl}-2,7-diazaspiro[3.5]nonan-2-yl)-1,2-oxazol-5-yl]-3-methylbutanoyl]-4-hydroxy-N-[(1S)-1-[4-(1-methyl-1H-pyrazol-5-yl)phenyl]ethyl]pyrrolidine-2-carboxamide]	80 to 100	< 0.6
CCc1cccc2cc(O)cc(-c3ncc4c(N5CC6CCC(C5)N6)nc(OC[C@]56CCCN5[C@@H](COC(=O)N5CCN(c7cc([C@H](C(=O)N8C[C@H](O)C[C@H]8C(=O)N[C@@H](C)c8ccc(-c9scnc9C)cc8)C(C)C)on7)CC5)CC6)nc4c3F)c12 (relative stereo) [Compound 110, [(3R*,7aR**)-7a-{[(4-{3,8-diazabicyclo[3.2.1]octan-3-yl}-7-(8-ethyl-3-hydroxynaphthalen-1-yl)-8-fluoropyrido[4,3-d]pyrimidin-2-yl)oxy]methyl}-hexahydro-1H-pyrrolizin-3-yl]methyl 4-{5-[(2R***)-1-[(2S,4R)-4-hydroxy-2-{[(1S)-1-[4-(4-methyl-1,3-thiazol-5-yl)phenyl]ethyl]carbamoyl}pyrrolidin-1-yl]-3-methyl-1-oxobutan-2-yl]-1,2-oxazol-3-yl}piperazine-1-carboxylate]	80 to 100	< 0.6
